# Target: T1, MyD88^TIR (Homo sapiens, UniProt Q99836)
# T1 construct: MyD88 (residues 148–296); 6xHis; made in house; host or cells: E. coli BL21 (DE3)
# Experiment: T‐Surf phage library (P8 and P3) selection against MyD88^TIR, four rounds, NGS read counts
# Assay type: binding
# Conditions: for P3_MyD88 Rank (after) / P3_MyD88 Rank (before): P3 library; for Population: 4th round of selection against MyD88 TIR, share of NGS reads; for P8_MyD88 Rank (after) / P8_MyD88 Rank (before): P8 library
# Experimental: T‐Surf libraries were screened against the immobilized TIR domains of two major human TLR adaptor proteins, MAL^TIR and MyD88^TIR, allowing cross‐species selection of TIR‐binding motifs with 190 946 TIR‐derived peptides in a single binding assay (Scheme 1). Enriched phage pools from the fourth round of selection were analyzed using NGS after barcoding the peptide‐coding regions of the phage pools.
# Phage display screening was performed by coating two wells of a 96‐well plate (Maxisorp, Thermo Fisher Scientific) with 100 µL of 5 µg mL^−1 TIR domains overnight; then, the coated wells were blocked with 200 µL of blocking buffer (0.2% BSA in PBS) and set aside for 1 h at 4 °C with gentle shaking. Next, 100 µL of the phage library was added to the wells and incubated for 1 h at room temperature (RT; 20 – 22 °C) with gentle shaking. The plate was washed four times with PBS containing 0.5% Tween‐20; the bound phages were eluted by adding 100 µL of 100 mM HCl to each well. The elute was neutralized with 10 µL of 1.0 M Tris‐HCl (pH 11.0). E. coli TG1 cells were grown to the log phase (A600 = ≈0.6), and 1 mL of the culture was incubated with 100 µL of the eluted phages for 30 min at 37 °C, with shaking at 200 rpm. Next, 1 µL of M13KO7 helper phages was added, followed by incubation for 45 min at 37 °C, with shaking. Subsequently, the cells were transferred to 25 mL of 2× yeast extract tryptone/carbenicillin/kanamycin medium and incubated overnight at 37 °C with shaking at 200 rpm. The amplified phages were precipitated with 20% PEG‐8000/2.5 M NaCl to be used for the next round of selection.
# The naïve T‐Surf libraries in P8 and P3 and the enriched phage pools after four rounds were barcoded for NGS as previously described.^[ [59] ^] Briefly, 5 µL of the phage pool was used as a template for 20 cycles of a 50 µL PCR reaction using […] each of forward and reverse barcoded primers and PrimeSTAR Max DNA Polymerase. The PCR products were purified using Expin Gel SV (GeneAll). The NGS samples were quantified using qPCR, following the qPCR Quantification Protocol Guide (KAPA Library Quantification kits for Illumina Sequencing Platform), and qualified using the TapeStation High Sensitivity D1000 ScreenTape (Agilent Technologies). The indexed libraries were further sequenced by Macrogen (Seoul, Republic of Korea) using the NovaSeq platform (Illumina) with 100 bp paired‐end reads. The reads were demultiplexed by barcodes and filtered for an average Phred quality score of at least 30, followed by trimming the flanking consensus sequences using Cutadapt (version 2.3). Peptide sequence populations were analyzed according to the read counts.
# [1] = P8_MyD88: rank by NGS read count after grouping
# [2] = P8_MyD88: rank by NGS read count before grouping
# [3] = 4R selection against MyD88, rank after grouping
# [4] = 4R selection against MyD88, rank before grouping
# [5] = P8_MyD88 pool: P8 T-Surf phage library
# [6] = selection against MyD88 TIR, rank by count after grouping
# [7] = selection against MyD88 TIR, rank by count before grouping
# [8] = P3_MyD88 pool: P3 T-Surf phage library
# [9] = P3_MyD88: rank by count after grouping
# [10] = P3_MyD88: rank by count before grouping
# [11] = selection against MyD88, rank by count after grouping
# [12] = selection against MyD88, rank by count before grouping
# [13] = P8_MyD88: rank by count after grouping
# [14] = P8_MyD88: rank by count before grouping
# [15] = selection against MyD88, rank after grouping
# [16] = selection against MyD88, rank before grouping
# T1 sequence (Q99836 148-296): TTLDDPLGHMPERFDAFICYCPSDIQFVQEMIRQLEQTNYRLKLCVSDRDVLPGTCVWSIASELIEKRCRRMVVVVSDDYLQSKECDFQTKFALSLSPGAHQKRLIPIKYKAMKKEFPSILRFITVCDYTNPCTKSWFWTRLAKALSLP
sequence,measurement,setting,value
YKLALHFRVWRVGVSI,Rank (after),[1],883
same,Rank (before),[2],2135
WALNELQKILNAKETI,Rank (after),[1],900
same,Rank (before),[2],1553
YASNDDNDYYWVTHVRLRHL,Rank (after),[1],1023
same,Rank (before),[2],1909
NQWRNALTEAAHLSGW,P3_MyD88 Rank (after),[3],663
same,P3_MyD88 Rank (before),[4],3520
DSLFWDRLLYSL,Population,[5],0.00732%
DPQGLGWFYERLVSLF,P8_MyD88 Rank (after),[6],223
same,P8_MyD88 Rank (before),[7],2678
NQWRNALTAAANLA,Population,[8],0.00291%
DPQDLDWFYERLVSLFL,Population,[5],0.02%
IAADHLSYLGRLLLSR,Rank (after),[1],885
same,Rank (before),[2],3614
YYLDPSHLRKQSVEFS,Rank (after),[9],473
same,Rank (before),[10],1451
QGGDEITPSLFKAFKD,P3_MyD88 Rank (after),[6],265
same,P3_MyD88 Rank (before),[7],1150
NELVHVWSSKANIRVC,P3_MyD88 Rank (after),[11],718
same,P3_MyD88 Rank (before),[12],3399
DLVWDYLLPNLAGPAG,Rank (after),[1],967
same,Rank (before),[2],2386
DPQDLVWYYERLVSLF,Rank (after),[13],410
same,Rank (before),[14],2717
WSLDELLKILYAKETI,P8_MyD88 Rank (after),[15],508
same,P8_MyD88 Rank (before),[16],1386
SSFCEGLWRLLELSKK,Population,[8],0.00437%
HLLKEFYKKQITAFKD,P3_MyD88 Rank (after),[6],194
same,P3_MyD88 Rank (before),[7],2773
NQWRNALTAAAHLTGW,P3_MyD88 Rank (after),[11],721
same,P3_MyD88 Rank (before),[12],3494
ENYAFSSWALGELLHI,P8_MyD88 Rank (after),[6],192
same,P8_MyD88 Rank (before),[7],247
VANILGYHCKGWENFV,P8_MyD88 Rank (after),[3],674
same,P8_MyD88 Rank (before),[4],2170
EWIREQLRPALDELVL,Rank (after),[9],165
same,Rank (before),[10],648
SDLRVVEDGSVSPLEM,Rank (after),[9],104
same,Rank (before),[10],1178
VQWDDPWFWDKLAYA,Rank (after),[13],417
same,Rank (before),[14],1009
YSFTGQLHRYMVQRGV,P3_MyD88 Rank (after),[3],649
same,P3_MyD88 Rank (before),[4],1434
YELDFSHFWLFEGPAG,P8_MyD88 Rank (after),[6],245
same,P8_MyD88 Rank (before),[7],538
WDFASNMEQLLDRLYY,Rank (after),[13],406
same,Rank (before),[14],1626
FRGEDIADNFLSHLVVAL,P8_MyD88 Rank (after),[6],234
same,P8_MyD88 Rank (before),[7],371
DSDPGSDLLIKIWAAL,Rank (after),[13],166
same,Rank (before),[14],185
same,Population,[5],0.00694%
YTALTNRGFLTFRDNA,Rank (after),[9],180
same,Rank (before),[10],1650
LVAHRFSKKMKIFATM,P3_MyD88 Rank (after),[3],621
same,P3_MyD88 Rank (before),[4],2315
WAQEQDGFWVRLIEAL,Rank (after),[13],449
same,Rank (before),[14],878
KQWRNALTAEANLSGW,P3_MyD88 Rank (after),[15],557
same,P3_MyD88 Rank (before),[16],3552
AWVGDYLLPNLEGPAG,P8_MyD88 Rank (after),[3],672
same,P8_MyD88 Rank (before),[4],2318
SENYATSPWALTELVH,P3_MyD88 Rank (after),[6],278
same,P3_MyD88 Rank (before),[7],2986
GEDTRLPLPAICMRP,P3_MyD88 Rank (after),[11],740
same,P3_MyD88 Rank (before),[12],1831
YLKWGYPRFWDRLRFV,P3_MyD88 Rank (after),[11],729
same,P3_MyD88 Rank (before),[12],1603
YLKWGYRWYWDRLRFA,P3_MyD88 Rank (after),[15],543
same,P3_MyD88 Rank (before),[16],1576
AVVRETQKIQPQRKNA,Rank (after),[9],466
same,Rank (before),[10],1885
ELDFSHFWLFDGQSGKDA,P8_MyD88 Rank (after),[6],216
same,P8_MyD88 Rank (before),[7],359
YLKWAIRGFGIVCVL,P3_MyD88 Rank (after),[6],238
same,P3_MyD88 Rank (before),[7],862
EYRNESKSVWDIINAI,P8_MyD88 Rank (after),[3],642
same,P8_MyD88 Rank (before),[4],3172
YLKWGYPWFWDRLRFA,P8_MyD88 Rank (after),[15],571
same,P8_MyD88 Rank (before),[16],2084
GWAWDYLLPNLEGPAG,P8_MyD88 Rank (after),[11],703
same,P8_MyD88 Rank (before),[12],2275
YLKWGYPWFWDRLRYAM,Rank (after),[9],97
same,Rank (before),[10],342
ALLKKLDSGFSEEKLL,P3_MyD88 Rank (after),[6],267
same,P3_MyD88 Rank (before),[7],1950
SELCVVAEGSVSPLDM,P3_MyD88 Rank (after),[3],587
same,P3_MyD88 Rank (before),[4],3010
ARFKDMIINKWRTALKERLP,P3_MyD88 Rank (after),[11],744
same,P3_MyD88 Rank (before),[12],1964
IFISHLYNSLTNAGIY,Rank (after),[13],178
same,Rank (before),[14],227
SNFRKGLSRLLELSKK,P3_MyD88 Rank (after),[15],572
same,P3_MyD88 Rank (before),[16],3283
DPQDLDWFYEHLFSQM,Rank (after),[13],411
same,Rank (before),[14],2801
DVLYWALTEAGLRGFR,P8_MyD88 Rank (after),[15],578
same,P8_MyD88 Rank (before),[16],2557
YELDFSHFSLFEGQAT,Rank (after),[13],463
same,Rank (before),[14],1949
QYSGTPLAHTSKFPDE,P3_MyD88 Rank (after),[3],605
same,P3_MyD88 Rank (before),[4],2832
YAFTGHLHATL,Population,[8],0.00291%
STAMTNRGFHTFRDND,P3_MyD88 Rank (after),[11],688
same,P3_MyD88 Rank (before),[12],1427
YNLAQYLHVSLMARGI,P8_MyD88 Rank (after),[3],664
same,P8_MyD88 Rank (before),[4],2134
ELDFSHFWLFDGDAGEEP,P8_MyD88 Rank (after),[6],229
same,P8_MyD88 Rank (before),[7],476
SCFCEELCCVLELSKK,P3_MyD88 Rank (after),[3],656
same,P3_MyD88 Rank (before),[4],2938
RTLFENLWESVYNISQ,P3_MyD88 Rank (after),[11],690
same,P3_MyD88 Rank (before),[12],2633
DWVYNELIAHLENTEH,P8_MyD88 Rank (after),[6],204
same,P8_MyD88 Rank (before),[7],306
SELRVVDDGSVSPLVT,Rank (after),[9],182
same,Rank (before),[10],3029
RYIMPHPQELIQQKQP,P3_MyD88 Rank (after),[6],249
same,P3_MyD88 Rank (before),[7],2561
SEIYATSPWALDVLVL,P3_MyD88 Rank (after),[15],508
same,P3_MyD88 Rank (before),[16],2953
SSLREGLWRLLELGKK,P3_MyD88 Rank (after),[3],597
same,P3_MyD88 Rank (before),[4],3255
YELVHVWSSKANSLVG,Population,[8],0.0032%
